Measured values from patent publication US11761045B2, “Splice variants associated with neomorphic SF3B1 mutants” (Eisai R&D Management Co., Ltd., priority 2015, dated 2023).

Columns and labels:
Nalm-6 SF3B1^K700E cells = experiment: Splice variant levels in Nalm-6 isogenic cells by RNA-Seq; assay type: cell-based, human; details: additional compounds, FIG. 19
Description: (§1) To investigate the broader activity of E7107 on normal and aberrant splicing, RNA from Nalm-6 isogenic cells treated for two and six hours at 15 nM was analyzed by NanoString®. […] Normal and aberrant splicing in the isogenic cell lines was also analyzed by RNA-Seq following treatment with one of additional compounds having formulas 1 or 2. […] For the RNA-Seq analysis, cells were washed with PBS after treatment with E7107 or other test compound, and RNA was isolated using PureLink (Life Technology) as reported in the manufacturer's manual. cDNA library preparation, sequencing and raw read filtering was performed as described in Ren, S. et al. “RNA-Seq analysis of prostate cancer in the Chinese population identifies recurrent gene fusions, cancer-associated long noncoding RNAs and aberrant alternative splicings.” Cell Res 22, 806-821, doi:10.1038/cr.2012.30 (2012).

Nalm-6 SF3B1^K700K cells = experiment: as above; assay type: cell-based, human; details: additional compounds, FIG. 19
Description: as §1

SMILES | expression of WT-associated and MUT-associated RNA isoforms by RNA-Seq (Nalm-6 SF3B1^K700E cells) | expression of WT-associated and MUT-associated RNA isoforms by RNA-Seq (Nalm-6 SF3B1^K700K cells)
C/C(=C\C=C\[C@@H](C)c1ccccn1)[C@H]1OC(=O)C[C@H](O)CC[C@@](C)(O)[C@@H](OC(=O)N2CCN(C)CC2)/C=C/[C@@H]1C [Compound 2] | inhibited expression of both WT-associated and MUT-associated RNA isoforms | inhibited expression of both WT-associated and MUT-associated RNA isoforms
C/C(=C\C=C\[C@@H](C)c1ccccn1)[C@H]1OC(=O)C[C@H](O)CC[C@@](C)(O)[C@@H](OC(=O)N2CCN(C3CCCCCC3)CC2)/C=C/[C@@H]1C [Compound 1] | inhibited expression of both WT-associated and MUT-associated RNA isoforms | inhibited expression of both WT-associated and MUT-associated RNA isoforms
